Experimental data as given in patent US20110223222A1, “Antiperspirant Compositions and Methods for Reducing Perspiration in Humans” (priority 2008, published 2011).

What was measured:
[1] = system: axilla odor of volunteers; experiment: Evaluation of deodorant effect (sniff test); assay type: in vivo, human; details: at D4 vs D1, odor score 0-10 by two trained judges
Method: The volunteers were submitted to a “rest period” as described previously in Example 2. The odor was evaluated for the volunteers at D1 and at D4. At D1 the evaluation was made before the application of the test formulations, after the 20-minute warm-up period, and only the volunteers with starting values not less than 2 were included in the test. The odor evaluation scoring system was based on a range of axilla odor from no malodor (0), to moderate malodor (5), to extremely strong malodor (10). Two trained judges, familiar with the procedures and rating system, subjectively made the odor measurements of both axillae of each volunteer. The data correspond to the individual subject scores by the two trained judges and to the individual average.

[2] = system: axillae of healthy female volunteers; experiment: Antiperspirant efficacy, FDA hotroom protocol, gravimetric sweat collection; assay type: in vivo, human; details: after four days of once-daily topical treatment, D4 vs D1 baseline
Method: The antiperspirant efficacy and safety of investigated compounds were tested pursuant to protocol prescribed by the Food and Drug Administration, […] (Guidelines for Effectiveness Testing of OTC Antiperspirant Drug Products, 2004). The clinical study further conformed to Normative Resolution 196/96, CN/MS. The clinical study was divided into three tests and conducted with among at least thirty healthy female volunteers per test. They were between the ages of 18 and 50. The study was single-center, randomized, controlled, double blind assessment of the safety, tolerability and antiperspirant efficacy of TRPM8 agonists when applied to the axillae of healthy female volunteers. Before proceeding with the testing, all the volunteers were submitted to a “rest period” of 17 days, according to the FDA protocol. During this period, a placebo control formulation with no antiperspirancy effect was applied twice a day to both axillae. Treatments were applied once daily for four consecutive days (numbered D1 to D4). On D1, the baseline perspiration rate was determined before the antiperspirant formulations were applied. All the volunteers remained under hotroom conditions for a 40-minute warm-up period, divided into 2 periods of 20 minutes each. The term “hotroom condition” is the controlled environment (temperatures at 38° C.±1° C., and relative humidity of 35%±5%) established by the FDA standard protocol to thermally induce volunteer's perspiration. Cotton absorbent pads (Sussex®) were preweighed (P1) and placed in both axillae of each volunteer. At the end of the warm-up period, the perspiration collected on the absorbent pads was again weighed (P2) and the perspiration rates were obtained through gravimetric measurements (according to the formula P2-P1). According to FDA protocol, volunteers must produce at least 100 milligrams of sweat from the placebo control axilla in a 20-minute collection in the controlled environment, and at least one volunteer must produce more than 600 milligrams of sweat. Commercial menthol (YSC), Mentha essential oil (YSC) and Eucalyptus essential oil (Inter-Link) were presented as components of the antiperspirant formulations as described in the Example 1. Both commercial Mentha and Eucalyptus essential oils, which present menthol and eucalyptol, respectively, as the major components, were submitted to a GC-MS analysis in order to determine the appropriate amount of essential oils to be used to manufacture the antiperspirant compositions. In each treatment group as listed below, one of the antiperspirant formulations were applied to one axilla of the volunteers. […] Safety and tolerance were measured by assessment of visual effects and dermal irritancy, and subjective assessment of tolerance. […]

Structure (SMILES): CC1CCC(C(C)C)C(O)C1 (centres unmarked) [menthol]
- improvement in axilla odor [1]: 6.4%±25.3
- reduction in sweat production ([2]; Group 1, one hour after application): 61.4%±23.1
- reduction in sweat production ([2]; Group 2, two hours after application): 63.7%±21.8
- reduction in sweat production ([2]; Group 3, four hours after application): 63.7%±21.8
- reduction in sweat production ([2]; Group 3, four hours after application, listed as menthol (YSC)): 75%±12.1
